Test results reported in US8304371B2, “Insecticidal arylpyrrolines” (Bayer Cropscience AG, priority 2008, dated 2012).

What was measured:
Format in all cases: in vivo
[1] = test system: Tobacco Cutworm (Spodoptera litura) Larvae; experiment: Test against tobacco cutworm (Spodoptera litura) larvae, leaf dip; conditions: active compound concentration 100 ppm; third-instar larvae; after 7 days
Experimental: (§1) Unless nomentioned otherwise, the test solutions were prepared as follows:
(§2) Containing as solvent: Dimethylformamide, 3 parts by weight; and as emulsifier: Polyoxyethylene alkyl phenyl ether, 1 part by weight
(§3) To prepare the test solution, 1 part by weight of an active compound is mixed with the above-mentioned amount of solvent containing the above-mentioned amount of emulsifier, and the mixture is diluted with water to the desired concentration.
The leaves of sweet potato were immersed in the test solution at the appropriate concentration, and the leaves were dried in air. The leaves were then placed in a petri dish having a diameter of 9 cm, and ten third-instar larvae of tobacco cutworm were released therein. The petri dish was placed in a temperature chamber at 25° C. After 2 days and 4 days sweet potato leaves were additionally added. After 7 days, the number of dead larvae was counted, to calculate the insecticidal activity. An insecticidal activity of 100% means that all larvae were killed, whereas an insecticidal activity of 0% means that no larva was killed. In the current test, the results of two petri dishes for each partition were averaged.

[2] = test system: Two-Spotted Spider Mite (Tetranvchus urticae); experiment: Test against two-spotted spider mite, spray on kidney bean; conditions: active compound concentration 100 ppm; adult mites; after 7 days
Experimental: as §1, §2, §3
50 to 100 adult two-spotted spider mites were inoculated onto the leaves of kidney beans at the two-true leaf stage, which plant had been cultivated in a pot having a diameter of 6 cm. After one day, test solution at the appropriate concentration was sprayed thereon in a sufficient amount using a spray gun. After the spraying, the plant pot was placed inside a greenhouse, and after 7 days, the acaricidal activity was calculated. An acaricidal activity of 100% means that all mites were killed, whereas an acaricidal activity of 0% means that no mite was killed.

[3] = test system: Cucurbit Leaf Beetle (Aulacophora femoralis); experiment: Test against cucurbit leaf beetle, cucumber leaf dip; conditions: active compound concentration 100 ppm; second-instar larvae; after 7 days
Experimental: as §1, §2, §3
Cucumber leaves were immersed in the test solution at the appropriate concentration, and the leaves were dried in air. The leaves were then placed in a plastic cup containing aseptically sterilized black soil, and five second-instar larvae of cucurbit leaf beetle were released therein. After 7 days, the number of dead larvae was counted, and thus the insecticidal activity was calculated. An insecticidal activity of 100% means that all beetles were killed, whereas an insecticidal activity of 0% means that no beetle was killed.

[4] = test system: Strain of Green Peach Aphid (Mvzus persicas) which is Resistant to Organic Phosphorus and Carbamate Agents; experiment: Test against resistant green peach aphid, spray on egg plant; conditions: active compound concentration 500 ppm; after 7 days
Experimental: as §1, §2, §3
About 30 to 50 of the resistant green peach aphids were inoculated per seedling, onto the leaves of egg plant at the two-true leaf stage, which plant had been cultivated in a pot having a diameter of 6 cm. One day after the inoculation, the test solution at the appropriate concentration was sprayed thereon in a sufficient amount using a spray gun. After the spraying, the plant pot was placed in a greenhouse at 28° C., and after 7 days, the insecticidal activity was calculated. An insecticidal activity of 100% means that all aphids were killed, whereas an insecticidal activity of […] means that no aphid was killed. The test was repeated two times.

O=C(NCc1ccc(C2=NCC(c3cc(C(F)(F)F)cc(C(F)(F)F)c3)(C(F)(F)F)C2)cc1Br)C1CC1 (centres unmarked) [2-179]
100%: insecticidal activity [1] | acaricidal activity [2] | insecticidal activity [3] | insecticidal activity [4]

O=C(CC(F)(F)F)NCc1ccc(C2=NCC(c3cc(Cl)c(Cl)c(Cl)c3)(C(F)(F)F)C2)c2ccccc12 (centres unmarked) [11-8]
100%: insecticidal activity [1] | acaricidal activity [2] | insecticidal activity [3] | insecticidal activity [4]

N#Cc1cc(C2=NCC(c3cc(Cl)cc(C(F)(F)F)c3)(C(F)(F)F)C2)ccc1-n1cncn1 (centres unmarked) [1-95]
100%: insecticidal activity [1] | acaricidal activity [2] | insecticidal activity [3] | insecticidal activity [4]

O=C(CC(F)(F)F)NCc1ccc(C2=NCC(c3cc(Cl)c(Cl)c(Cl)c3)(C(F)(F)F)C2)cc1C(F)(F)F (centres unmarked) [2-164]
100%: insecticidal activity [1] | acaricidal activity [2] | insecticidal activity [3] | insecticidal activity [4]

CC(=O)NCc1ccc(C2=NCC(c3cc(C(F)(F)F)cc(C(F)(F)F)c3)(C(F)(F)F)C2)cc1C(F)(F)F (centres unmarked) [2-165]
100%: insecticidal activity [1] | acaricidal activity [2] | insecticidal activity [3] | insecticidal activity [4]

O=C(CC(F)(F)F)NCc1ccc(C2=NCC(c3cc(Cl)c(Cl)c(C(F)(F)F)c3)(C(F)(F)F)C2)cc1Br (centres unmarked) [2-173]
100%: insecticidal activity [1] | acaricidal activity [2] | insecticidal activity [3] | insecticidal activity [4]

CCC(=O)NCc1ccc(C2=NCC(c3cc(Cl)c(Cl)c(Cl)c3)(C(F)(F)F)C2)cc1C(F)(F)F (centres unmarked) [2-162]
100%: insecticidal activity [1] | acaricidal activity [2] | insecticidal activity [3] | insecticidal activity [4]

O=C(NCc1ccc(C2=NCC(c3cc(Cl)c(Cl)c(C(F)(F)F)c3)(C(F)(F)F)C2)cc1Br)C1CC1 (centres unmarked) [2-172]
100%: insecticidal activity [1] | acaricidal activity [2] | insecticidal activity [3] | insecticidal activity [4]

O=C(NCc1ccc(C2=NCC(c3cc(Cl)c(Cl)c(Cl)c3)(C(F)(F)F)C2)cc1C(F)(F)F)C1CC1 (centres unmarked) [2-163]
100%: insecticidal activity [1] | acaricidal activity [2] | insecticidal activity [3] | insecticidal activity [4]

O=C(NCc1ccc(C2=NCC(c3cc(Cl)c(Cl)c(Cl)c3)(C(F)(F)F)C2)cc1Cl)C1CC1 (centres unmarked) [2-158]
100%: insecticidal activity [1] | acaricidal activity [2] | insecticidal activity [3] | insecticidal activity [4]

O=C(CC(F)(F)F)NCc1ccc(C2=NCC(c3cc(Cl)c(Cl)c(Cl)c3)(C(F)(F)F)C2)cc1Br (centres unmarked) [2-171]
100%: insecticidal activity [1] | acaricidal activity [2] | insecticidal activity [3] | insecticidal activity [4]

O=C(NCc1ccc(C2=NCC(c3cc(Cl)c(Cl)c(Cl)c3)(C(F)(F)F)C2)c2ccccc12)C1CC1 (centres unmarked) [11-7]
100%: insecticidal activity [1] | acaricidal activity [2] | insecticidal activity [3] | insecticidal activity [4]

O=C(NCc1ccc(C2=NCC(c3cc(Cl)cc(Cl)c3)(C(F)(F)F)C2)cc1Br)C1CC1 (centres unmarked) [2-153]
100%: insecticidal activity [1] | insecticidal activity [3]

O=C(NCc1ccc(C2=NCC(c3cc(Cl)c(Cl)c(Cl)c3)(C(F)(F)F)C2)cc1Br)C1CC1 (centres unmarked) [2-170]
100%: insecticidal activity [1] | acaricidal activity [2] | insecticidal activity [3] | insecticidal activity [4]

O=C(CC(F)(F)F)NCc1ccc(C2=NCC(c3cc(C(F)(F)F)cc(C(F)(F)F)c3)(C(F)(F)F)C2)cc1C(F)(F)F (centres unmarked) [2-168]
100%: insecticidal activity [1] | acaricidal activity [2] | insecticidal activity [3] | insecticidal activity [4]

O=C(CC(F)(F)F)NCc1ccc(C2=NCC(c3cc(Cl)cc(Cl)c3)(C(F)(F)F)C2)cc1Br (centres unmarked) [2-154]
100%: insecticidal activity [1] | acaricidal activity [2] | insecticidal activity [3]

O=C(CC(F)(F)F)NCc1ccc(C2=NCC(c3cc(Cl)c(Cl)c(Cl)c3)(C(F)(F)F)C2)cc1Cl (centres unmarked) [2-159]
100%: insecticidal activity [1] | acaricidal activity [2] | insecticidal activity [3] | insecticidal activity [4]

CSCC(=O)NCc1ccc(C2=NCC(c3cc(Cl)c(Cl)c(Cl)c3)(C(F)(F)F)C2)cc1C(F)(F)F (racemic) [2-209]
100%: insecticidal activity [1] | acaricidal activity [2] | insecticidal activity [3] | insecticidal activity [4]

CC(=O)NCc1ccc(C2=NCC(c3cc(Cl)c(Cl)c(Cl)c3)(C(F)(F)F)C2)c2ccccc12 (centres unmarked) [11-5]
100%: insecticidal activity [1] | acaricidal activity [2] | insecticidal activity [3] | insecticidal activity [4]

N#Cc1cc(C2=NCC(c3cc(C(F)(F)F)cc(C(F)(F)F)c3)(C(F)(F)F)C2)ccc1-n1cncn1 (centres unmarked) [1-72]
100%: insecticidal activity [1] | acaricidal activity [2] | insecticidal activity [3] | insecticidal activity [4]

O=C(CC(F)(F)F)NCc1ccc(C2=NCC(c3cc(Cl)cc(Cl)c3)(C(F)(F)F)C2)cc1C(F)(F)F (racemic) [2-211]
100%: acaricidal activity [2] | insecticidal activity [3] | insecticidal activity [4]

CCNC(=O)NCc1ccc(C2=NCC(c3cc(Cl)c(Cl)c(Cl)c3)(C(F)(F)F)C2)cc1Br (centres unmarked) [2-195]
100%: insecticidal activity [1] | acaricidal activity [2] | insecticidal activity [3] | insecticidal activity [4]

CCC(=O)NCc1ccc(C2=NCC(c3cc(Cl)c(Cl)c(Cl)c3)(C(F)(F)F)C2)c2ccccc12 (centres unmarked) [11-6]
100%: insecticidal activity [1] | acaricidal activity [2] | insecticidal activity [3] | insecticidal activity [4]

O=C(CC(F)(F)F)NCc1ccc(C2=NCC(c3cc(C(F)(F)F)cc(C(F)(F)F)c3)(C(F)(F)F)C2)cc1Br (centres unmarked) [2-180]
100%: insecticidal activity [1] | acaricidal activity [2] | insecticidal activity [3] | insecticidal activity [4]

CCC(=O)NCc1ccc(C2=NCC(c3cc(Cl)c(Cl)c(C(F)(F)F)c3)(C(F)(F)F)C2)cc1C(F)(F)F (centres unmarked) [2-205]
100%: insecticidal activity [1] | acaricidal activity [2] | insecticidal activity [3] | insecticidal activity [4]

CC(=O)NCc1ccc(C2=NCC(c3cc(Cl)c(Cl)c(Cl)c3)(C(F)(F)F)C2)cc1Cl (centres unmarked) [2-156]
100%: insecticidal activity [1] | acaricidal activity [2] | insecticidal activity [3] | insecticidal activity [4]

CCC(=O)NCc1ccc(C2=NCC(c3cc(Cl)cc(Cl)c3)(C(F)(F)F)C2)cc1Br (centres unmarked) [2-19]
100%: insecticidal activity [1] | insecticidal activity [3]

CC(=O)NCc1ccc(C2=NCC(c3cc(Cl)c(Cl)c(Cl)c3)(C(F)(F)F)C2)cc1C(F)(F)F (centres unmarked) [2-161]
100%: insecticidal activity [1] | acaricidal activity [2] | insecticidal activity [3] | insecticidal activity [4]

CCC(=O)NCc1ccc(C2=NCC(c3cc(Cl)c(Cl)c(Cl)c3)(C(F)(F)F)C2)cc1Cl (centres unmarked) [2-157]
100%: insecticidal activity [1] | acaricidal activity [2] | insecticidal activity [3] | insecticidal activity [4]

O=C(NCc1ccc(C2=NCC(c3cc(C(F)(F)F)cc(C(F)(F)F)c3)(C(F)(F)F)C2)cc1C(F)(F)F)C1CC1 (centres unmarked) [2-167]
100%: insecticidal activity [1] | acaricidal activity [2] | insecticidal activity [3] | insecticidal activity [4]

CC(=O)NCc1ccc(C2=NCC(c3cc(Cl)cc(Cl)c3)(C(F)(F)F)C2)cc1C(F)(F)F (centres unmarked) [2-160]
100%: insecticidal activity [1] | acaricidal activity [2] | insecticidal activity [3] | insecticidal activity [4]

N#Cc1cc(C2=NCC(c3cc(Br)cc(Br)c3)(C(F)(F)F)C2)ccc1-n1cncn1 (centres unmarked) [1-94]
100%: insecticidal activity [1] | acaricidal activity [2] | insecticidal activity [3] | insecticidal activity [4]

O=C(NCc1ccc(C2=NCC(c3cc(Cl)cc(Cl)c3)(C(F)(F)F)C2)cc1C(F)(F)F)C1CC1 (racemic) [2-212]
100%: acaricidal activity [2] | insecticidal activity [3] | insecticidal activity [4]
